Here are results for two molecules from patent publication US6420428B1, “Treatment and prevention of hepatic disorders” (The Regents of the University of California, priority 1996, dated 2002).

Series [1] concerns NFkB. Nature of the series: Mobility shift analysis of stellate cell nuclear extracts with NFkB oligonucleotide. It counts as in vivo, Sprague-Dawley rats. The note with it: CCl4-treated rats, gel shift. On the technique in general: In EMSA bound probe runs differently from free probe, usually more slowly.
Protocol: Gel retardation analysis of protein-DNA complexes were performed with an oligonucleotide of the putative DNA binding site.
For these analyses, equal amounts of nuclear protein were incubated with 1 ng of ^32P-labeled-NFkB (FIG. 3A) or ^32P-labeled-α-SMA-E box (FIG. 3B) oligonucleotides. The DNA-protein complexes were resolved by electrophoresis on a 6% nondenaturing polyacrylamide gel, the position of the bound DNA being indicated by arrows in FIGS. 3A-B. As described further below, some samples were incubated with specific antibodies or unlabeled oligonucleotide.
More specifically, FIG. 3A depicts DNA-protein complexes resolved by gel electrophoresis for representative samples of control (lane 2), CCl4 (lane 3), CCl4/pentoxifylline (lane 4); CCl4/metabolite 5 (lane 5); and CCl4+NFkB oligonucleotide (lane 6). On lane 1, the ^32P-labeled-NFkB probe was processed without nuclear extracts. […] The complex of ^32P-labeled NFkB oligonucleotides and nuclear extracts from activated stellate cells was competed by a NFkB cognate oligonucleotide (lane 6).
Series [2] deals with α-SMA-E box. Nature of the series: Mobility shift analysis of stellate cell nuclear extracts with α-SMA-E box oligonucleotide. It counts as in vivo, Sprague-Dawley rats. The note with it: CCl4-treated rats, gel shift.
Protocol: (§2) At least four Sprague-Dawley (Charles River Breeding Labs) male rats (50 to 60 g) were assigned to each of four testing groups (designated as “CCl4”, “pentoxifylline”, “metabolite 5”, and “control”). Each rat received a single intraperitoneal injection of CCl4 in mineral oil (1:3; v/v) at a dose of 2 mL/kg body weight (CCl4, pentoxifylline, and metabolite 5 groups), or mineral oil only (control group). In addition, animals received intraperitoneal injections (100 μL) of saline (control and CCl4 groups), 200 mg/kg pentoxifylline (pentoxifylline group), or 200 mg/kg of the ester prodrug of pentoxifylline metabolite 5 (metabolite 5 group) at the following times with respect to mineral oil or CCl4 administration: −4 h, +8 h, +20 h, +32 h, and +44 h.
Briefly, cells were homogenized in 1 mL of 5% citric acid, 0.5% NP-40, 10 mM sodium fluoride and 10 mM sodium pyrophosphate with a glass Dounce homogenizer with a loose fitting pestle. The homogenized cells were placed above a cushion consisting of 30% sucrose and 1% citric acid. The nuclei were precipitated by a 4,000 g centrifugation at 4° C. for 30 min. and frozen at −70° C.
Gel retardation analysis of protein-DNA complexes were performed with an oligonucleotide of the putative DNA binding site. […]
For series [3], the system named is cAMP phosphodiesterase activity in hepatic stellate cells. Nature of the series: CREB phosphorylation at Ser 133 in stellate cell nuclear extracts (Western blot) as measure of cAMP phosphodiesterase inhibition in vivo. Set-up: species or system Sprague-Dawley rats. The note with it: for expression of CREB-PSer133 in stellate cell nuclear extracts: CCl4-treated rats, Western blot. Here is the method: Stellate cells were identified by their typical autofluorescence at 328 nm excitation wavelength, staining of lipid droplets by oil red, and immunohistochemistry with a monoclonal antibody against desmin. [Bedossa et al., Hepatology 19(5):1262-71 (1994)]. Detection of α-SMA, malondialdehyde-protein adducts, and CREB-PSer 133 in stellate cells extracts was performed by Western blot [Buck et al., EMBO J. 13:851-60 (1994)], and using antibodies directed against α-SMA (Vector Laboratories), malondialdehyde-lysine epitopes as described below [Trautwein et al., J. Clin. Invest. 93:2554-61 (1990)], or CREB-PSer 133 (Upstate Biotechnology).
Next, pentoxifylline and metabolite 5 were evaluated to determine whether they inhibit cAMP phosphodiesterase activity in hepatic stellate cells in vivo leading to an increase in protein kinase A-mediate phosphorylation. Because this signal transduction pathway triggers site-specific phosphorylation of the nuclear transcription factor CREB (cAMP responsive element binding protein) on Serine 133 [Yamamoto et al., Nature 334:494-98 (1988)], the induction of CREB phosphorylation at Ser 133 was analyzed in nuclear extracts from freshly isolated stellate cells using an antibody against the activated, phosphorylated form of CREB [Ginty et al., Science 260:238-42 (1993)].
FIG. 4B is a Western blot indicating the results of phosphorylation of CREB at Serine 133 in stellate cell nuclear extracts with control (lane 1), CCl4 (lane 2), CCl4/pentoxifylline (lane 3), and CCl4/metabolite 5 (lane 4) animals. […] Molecular markers (kilodaltons) are shown on the right margin of FIG. 4B. In addition to recognizing CREB, anti-CREB-PSer133 detected two other proteins. These are most likely members of the CREB-ATF family, ATF-1 and CREM, that have phosphoacceptor sequences similar to that of CREB-PSer133 [Ginty et al., Science 260:238-42 (1993)]. […] Neither CREB PSer133 nor phosphorylated members of the CREB-ATF family were detected in stellate cell nuclear extracts from CCl4-treated animals (lane 2).

The test system of series [4] is 3T3 NIH fibroblasts. Nature of the series: Fibroblast proliferation in culture. It counts as cell-based. Particulars: for effect on fibroblast growth induced by cytokines PDGF, EGF and FGF: data not shown. As to the method: The biological activities of pentoxifylline and metabolite 5 were further studied by measuring their effects on the stimulation of fibroblast proliferation. For this study, 3T3 NIH fibroblasts were cultured in the presence or absence of pentoxifylline or metabolite 5.

The test system of series [5] is malondialdehyde-protein adducts. Nature of the series: Hepatic lipid peroxidation (malondialdehyde-protein adducts, immunohistochemistry) in CCl4-treated rats. The note with it: 48 h. In kind it is in vivo, Sprague-Dawley rats. As to the method: (§1) Forty-eight hours after the CCl4 or mineral oil injection (and 4 hours after the [^3H]thymidine injection), the rats were sacrificed. Thereafter, liver tissues were promptly removed, and a piece was fixed in 10% formaldehyde and embedded in paraffin for immunohistochemical staining.
Liver tissue was immunostained with antisera, specific for malondialdehyde-lysine adducts, raised against malondialdehyde-lysine adducts as described by Houglum et al., J Clin Invest 96:2269-76 (1995). Briefly, guinea pig LDL was isolated and modified with MDA, and the homologous modified LDL was used to immunize guinea pigs.
A phase-contrast microscope was utilized for hematoxylin/eosin staining and immunohistochemistry with alkaline phosphatase secondary antibodies (Vector Laboratories). Cytochromes utilized were alkaline phosphatase with fast green as counterstain (Sigma Chemical Co.). Negative control samples were processed in parallel under the same conditions, but with omission of the primary antibody.
In order to ascertain whether or not the prevention of activation observed with pentoxifylline resulted from interfering with the hepatocellular injury induced by CCl4, the degree of hepatocellular injury and lipid peroxidation were determined in those animals. […] As set forth above, protein adducts with malondialdehyde were detected using specific antibodies against malondialdehyde-lysine epitopes.

The conditions of series [6]: after pentoxifylline; cited from earlier work.
The test system of series [7] is α-smooth muscle actin (α-SMA) expression in hepatic stellate cells. Nature of the series: Stellate cell activation: α-SMA expression by Western blot of freshly isolated stellate cells, CCl4-treated rats. It counts as in vivo, Sprague-Dawley rats. Particulars: 200 mg/kg i.p., 48 h, metabolite 5 given as ester prodrug. For orientation: A western blot detects proteins with antibodies after separation by electrophoresis.
Protocol: as §2
Hepatic stellate cells were prepared from rats by in situ perfusion of the liver and single-step density Nycodenz® gradient (Accurate Chemical & Scientific Corp.). […] The cells were mixed with 9.5 mL Hank's buffer containing 3 g/L BSA and 8 mL of 28.7% (w/v) Nycodenz® in sodium-free Hank's buffer. The gradient was generated by placing 6 mL of the Hank's/BSA solution on top of the liver cell mixture in a 50 mL centrifugation tube. […]

The conditions of series [8]: rat, in vivo.
Protocol: At least four Sprague-Dawley (Charles River Breeding Labs) male rats (50 to 60 g) were assigned to each of four testing groups (designated as “CCl4”, “pentoxifylline”, “metabolite 5”, and “control”). Each rat received a single intraperitoneal injection of CCl4 in mineral oil (1:3; v/v) at a dose of 2 mL/kg body weight (CCl4, pentoxifylline, and metabolite 5 groups), or mineral oil only (control group). In addition, animals received intraperitoneal injections (100 μL) of saline (control and CCl4 groups), 200 mg/kg pentoxifylline (pentoxifylline group), or 200 mg/kg of the ester prodrug of pentoxifylline metabolite 5 (metabolite 5 group) at the following times with respect to mineral oil or CCl4 administration: −4 h, +8 h, +20 h, +32 h, and +44 h. The last injection (at +44h) included 30 μCi of 6-[^3H]thymidine (DuPont).
Series [9] has as its system cyclic nucleotide phosphodiesterases. Particulars: cited from earlier work.
For series [10] the following is noted: phosphorus-induced hepatocellular necrosis; cited from earlier work.
Series [11] has as its system hepatic stellate cells. In words: Stellate cell proliferation ([3H]thymidine incorporation into stellate cell DNA) in CCl4-treated rats. Particulars: 200 mg/kg i.p. at -4, +8, +20, +32, +44 h, 48 h, metabolite 5 given as ester prodrug. It counts as in vivo, Sprague-Dawley rats. Here is the method: as §1
Hepatic stellate cells were prepared from rats by in situ perfusion of the liver and single-step density Nycodenz® gradient (Accurate Chemical & Scientific Corp.). [See Bedossa et al., Hepatology 19(5):1262-71 (1994); Brenner et al., Mol. Biol. Med. 7:105-15 (1990); Schäfer et al., Hepatology 7(4):680-87 (1987)]. The cells were mixed with 9.5 mL Hank's buffer containing 3 g/L BSA and 8 mL of 28.7% (w/v) Nycodenz® in sodium-free Hank's buffer. […]
Nuclei were prepared by a modification of the procedure described previously, e.g., by Buck et al., EMBO J. 13:851-60 (1994). […] DNA was isolated, extracted and counted for [^3H]thymidine incorporation.
Stellate cell proliferation was assessed by the incorporation of [^3H]thymidine. Stellate cell activation was evaluated by the expression of α-smooth muscle actin (α-SMA). […]
The specific activity of stellate cell DNA, an index of S-phase labeling, was determined from at least four rats in each experimental group after 4 hours of labeling with [^3H]thymidine at 1 PM. […]
On the technique in general: Uptake of a labelled nucleoside into DNA is a usual measure of proliferation.

Series [12] deals with dermal fibroblasts. Particulars: cited from earlier work.

Regarding `Cn1cnc2c1c(=O)n(CCCC(=O)O)c(=O)n2C` [metabolite 5, 1-(3-carboxypropyl)-3,7-dimethylxanthine], the “effect on NFkB nuclear binding activity of stellate cells” value in [1] is given as “prevented NFkB nuclear activity induced by CCl4”. Besides, the “effect on complex between α-SMA-E box and stellate cell nuclear extracts” value in series [2] is reported as “prevented the formation of a complex”. Also, the “expression of CREB-PSer133 in stellate cell nuclear extracts” value in series [3] is “not detected”. In addition, the phosphodiesterase inhibitory activity entry in [3] (rat, in vivo) is listed as “lacks phosphodiesterase inhibitory activity”. Further, in series [4], the “effect on fibroblast growth in logarithmic phase” value is “block fibroblast growth in logarithmic phase”; the “effect on fibroblast growth induced by cytokines PDGF, EGF and FGF” value is reported as “blocked fibroblast growth”. Further, in [5], the “hepatic lipid peroxidation (malondialdehyde-protein adducts) versus CCl4 alone” value is “did not affect”. Further, the “plasma concentration relative to pentoxifylline” value in [6] is recorded as “five times greater”. In series [7], the “effect on stellate cell activation (α-SMA expression, Western blot)” value is reported as “prevented the activation of stellate cells induced by CCl4”.

`CC(=O)CCCCn1c(=O)c2c(ncn2C)n(C)c1=O` [pentoxifylline, 1-(5-oxohexyl)-3,7-dimethylxanthine]: the “toxicity of the dose to the animals” value in series [8] is recorded as “not toxic”. In series [9], the phosphodiesterase inhibition entry is on record as “non-specific inhibitor of cyclic nucleotide phosphodiesterases”. Besides, the hepatic fibrosis result in series [10] is “prevented hepatic fibrosis”. The “effect on NFkB nuclear binding activity of stellate cells” value in series [1] is “prevented NFkB nuclear activity induced by CCl4”. The “effect on complex between α-SMA-E box and stellate cell nuclear extracts” value in series [2] was “prevented the formation of a complex”. For the same molecule, the “expression of CREB-PSer133 in stellate cell nuclear extracts” value in series [3] is “markedly increased”. Besides, in [4], the “effect on fibroblast growth in logarithmic phase” value is “block fibroblast growth in logarithmic phase”; the “effect on fibroblast growth induced by cytokines PDGF, EGF and FGF” value is “blocked fibroblast growth”. Moreover, the “effect on stellate cell proliferation (stellate cell DNA [3H]thymidine specific activity)” value in series [11] is reported as “abolished the proliferation of stellate cells”. In series [5], the “hepatic lipid peroxidation (malondialdehyde-protein adducts) versus CCl4 alone” value was “comparable”. The “effect on stellate cell activation (α-SMA expression, Western blot)” value in series [7] was “prevented the activation of stellate cells induced by CCl4”. The collagen gene expression entry in series [12] is on record as “inhibits collagen gene expression”.
